Assays:
[1] = Octanol-water partition coefficient, log D of the compound at pH 7.4; format: physicochemical
[2] = system: Plasmodium falciparum; assay: microbe, parasite or virus in culture; conditions: W2
Description: Antiplasmodial activity against Plasmodium falciparum W2 infected in human erythrocytes

[3] = system: Vero; assay: Cytotoxicity against african green monkey Vero cells at 6.25 uM after 3 days; format: cell-based; conditions: chlorocebus sabaeus, 72 h
[4] = system: Vero; assay: Cytotoxicity against african green monkey Vero cells at 25 uM after 3 days; format: cell-based; conditions: chlorocebus sabaeus, 72 h
[5] = system: Trypanosoma cruzi; assay: Antitrypanosomal activity against Trypanosoma cruzi Tulahuen 2 infected in african green monkey Vero cells expressing red fluorescent protein after 3 days by fluorescence analysis; format: functional, organism-based; conditions: Tulahuen 2, Vero, 72 h

Row | Compound | logD [1] | IC50 [2] | Activity [3] | Activity [4] | IC50 [5]
1 | CC1=C(CCCCCCCCCC[P+](C)(C)C)C(=O)c2ccccc2C1=O | 1.95 | 404 nM |  |  | 
2 | C[P+](C)(C)CCCCCCCCCCN1C(=O)c2ccccc2C1=O | -0.08 | > 10000 nM |  |  | 
3 | O=C1c2ccccc2C(=O)N1CCCC[P+](c1ccccc1)(c1ccccc1)c1ccccc1 | 0.01 | 3500 nM |  |  | 
4 | O=C1c2ccccc2C(=O)N1CCCCCC[P+](c1ccccc1)(c1ccccc1)c1ccccc1 | 1.14 | 1020 nM |  |  | 
5 | O=C1c2ccccc2C(=O)N1CCCCCCCCCC[P+](c1ccc(F)cc1)(c1ccc(F)cc1)c1ccc(F)cc1 | 2.13 | 346 nM |  |  | 
6 | O=C1c2ccccc2C(=O)N1CCCCCCCCCC[P+](Cc1ccccc1)(Cc1ccccc1)Cc1ccccc1 | 1.37 | 288 nM |  |  | 
7 | CCCC[P+](CCCC)(CCCC)CCCCCCCCCCN1C(=O)c2ccccc2C1=O | 3.68 | 194 nM |  |  | 
8 | O=C1c2ccccc2C(=O)N1CCCCCCCCCC[P+](c1ccccc1)(c1ccccc1)c1ccccc1 | 1.67 | 173 nM |  |  | 
9 | Cc1ccccc1[P+](CCCCCCCCCCN1C(=O)c2ccccc2C1=O)(c1ccccc1C)c1ccccc1C | -0.75 | 143 nM |  |  | 
10 | O=C1c2ccccc2C(=O)N1CCCCCCCCCC[P+](C1CCCCC1)(C1CCCCC1)C1CCCCC1 | 4.5 | 141 nM |  |  | 
11 | COc1ccc([P+](CCCCCCCCCCN2C(=O)c3ccccc3C2=O)(c2ccc(OC)cc2)c2ccc(OC)cc2)cc1 | 3.19 | 134 nM |  |  | 
12 | O=C1C=C(NCC[P+](c2ccccc2)(c2ccccc2)c2ccccc2)C(=O)c2ccccc21 | -1.08 | 520 nM |  |  | 
13 | O=C1C=C(NCCCCCCCCCC[P+](c2ccc(F)cc2)(c2ccc(F)cc2)c2ccc(F)cc2)C(=O)c2ccccc21 | 1.67 | 292 nM |  |  | 
14 | O=C1C=C(NCCCCCCCCCC[P+](Cc2ccccc2)(Cc2ccccc2)Cc2ccccc2)C(=O)c2ccccc21 | 2.8 | 215 nM |  |  | 
15 | COc1ccc([P+](CCCCCCCCCCNC2=CC(=O)c3ccccc3C2=O)(c2ccc(OC)cc2)c2ccc(OC)cc2)cc1 | 4.37 | 134 nM |  |  | 
16 | O=C1C=C(NCCCCCCCCCC[P+](c2ccccc2)(c2ccccc2)c2ccccc2)C(=O)c2ccccc21 | 3.6 | 114 nM | Toxic | Toxic | 1.6 µM
17 | O=C1C=C(NCCCCCCCCCC[P+](C2CCCCC2)(C2CCCCC2)C2CCCCC2)C(=O)c2ccccc21 | 3.41 | 94.4 nM |  |  | 
18 | O=C1C=C(CCCCCCCCCC[P+](Cc2ccccc2)(Cc2ccccc2)Cc2ccccc2)C(=O)c2ccccc21 | 5.32 | 1300 nM | Non-toxic | Non-toxic | 3 µM
19 | O=C1C=C(CCCCCCCCCC[P+](c2ccc(F)cc2)(c2ccc(F)cc2)c2ccc(F)cc2)C(=O)c2ccccc21 | 1.66 | 846 nM |  |  | 
20 | O=C1C=C(CCCCCCCCCC[P+](c2ccccc2)(c2ccccc2)c2ccccc2)C(=O)c2ccccc21 | 4.08 | 259 nM |  |  | 

Row | Compound | logD [1] | IC50 [2] | Activity [3] | Activity [4] | IC50 [5]
21 | O=C1C=C(CCCCC[P+](c2ccccc2)(c2ccccc2)c2ccccc2)C(=O)c2ccccc21 | 1 | 157 nM |  |  | 
22 | CC1=C(CCCCC[P+](C)(C)C)C(=O)c2ccccc2C1=O | 0.21 | 956 nM |  |  | 
23 | CC1=C(C[P+](c2ccccc2)(c2ccccc2)c2ccccc2)C(=O)c2ccccc2C1=O | 1.89 | 543 nM |  |  | 
24 | CC1=C(CCCCCCCCCC[P+](Cc2ccccc2)(Cc2ccccc2)Cc2ccccc2)C(=O)c2ccccc2C1=O | 6.64 | 212 nM | Non-toxic | Toxic | 3.7 µM
25 | CCCC[P+](CCCC)(CCCC)CCCCCCCCCCC1=C(C)C(=O)c2ccccc2C1=O | 5.1 | 156 nM | Non-toxic | Toxic | 4 µM
26 | CC1=C(CCCCCCCCCC[P+](c2ccccc2C)(c2ccccc2C)c2ccccc2C)C(=O)c2ccccc2C1=O | 3.58 | 143 nM |  |  | 
27 | CC1=C(CCCCCCCCCC[P+](c2ccccc2)(c2ccccc2)c2ccccc2)C(=O)c2ccccc2C1=O | 3.97 | 143 nM | Toxic | Toxic | 1.6 µM
28 | CC1=C(CCCCCCCCCC[P+](C2CCCCC2)(C2CCCCC2)C2CCCCC2)C(=O)c2ccccc2C1=O | 3.64 | 134 nM | Non-toxic | Toxic | 2.4 µM
29 | COc1ccc([P+](CCCCCCCCCCC2=C(C)C(=O)c3ccccc3C2=O)(c2ccc(OC)cc2)c2ccc(OC)cc2)cc1 | 3.52 | 131 nM |  |  | 
30 | CC1=C(CCCCC[P+](c2ccccc2)(c2ccccc2)c2ccccc2)C(=O)c2ccccc2C1=O | 2.15 | 48.3 nM | Non-toxic | Toxic | 5.4 µM
31 | CC1=C(CCCC[P+](c2ccccc2)(c2ccccc2)c2ccccc2)C(=O)c2ccccc2C1=O | 1.91 | 18.7 nM | Non-toxic | Non-toxic | 2.7 µM
32 | CCCCCCCCCNC1=CC(=O)c2ccccc2C1=O |  | > 10000 nM | Non-toxic | Non-toxic | 17.3 µM
33 | CCCCCCCCCCC1=CC(=O)c2ccccc2C1=O |  | > 10000 nM | Non-toxic | Non-toxic | 9.3 µM
34 | CCCCCCCCCCN1C(=O)c2ccccc2C1=O |  | > 10000 nM |  |  | 
35 | C[C@@H]1CC[C@H]2[C@@H](C)C(=O)O[C@@H]3O[C@@]4(C)CC[C@@H]1[C@]32OO4 [ARTEMISININ] |  | 7.31 nM |  |  | 
36 | O=C1C(O)=C([C@H]2CC[C@H](c3ccc(Cl)cc3)CC2)C(=O)c2ccccc21 [ATOVAQUONE] |  | 0.28 nM |  |  | 
37 | O=C(Cn1ccnc1[N+](=O)[O-])NCc1ccccc1 [BENZNIDAZOLE] |  |  | Non-toxic | Non-toxic | 
38 | CCCC[P+](c1ccccc1)(c1ccccc1)c1ccccc1 [BUTYLTRIPHENYLPHOSPHONIUM] |  | 3500 nM |  |  | 
39 | CCCCCCCCCC[P+](c1ccccc1)(c1ccccc1)c1ccccc1 [DECYLTRIPHENYLPHOSPHONIUM] |  | 142 nM |  |  | 

— ChEMBL document CHEMBL2016476, “Phosphonium lipocations as antiparasitic agents” (Bioorg Med Chem Lett, 2012)
